Experimental data taken from patent US20070123580A1, “Combination of histone deacetylase inhibitors with chemotherapeutic agents” (priority 2003, published 2007).
Entries after “also recorded” stand apart in the source; their conditions may differ.

Tests used:
MDA-MB-435P cells = assay: MTS monolayer proliferation assay, drug combinations analysed with CalcuSyn; assay type: cell-based, human; settings: in combination with adriamycin
From the text: (§1) MTS (which is 3-(4,5 Dimethylthiazol-2-yl)-5-(3-carboxyphenyl)-2-(4-sulfophenyl)-2H-tetrazolium, inner salt) assays are used to assess the antiproliferative effects of the drug combinations. The HCT116 and MDA-MB-435P tumor cell lines, previously characterized as sensitive to HDA inhibitors, are chosen for these experiments along with clinically relevant chemotherapeutic drugs. A commercial program, “CalcuSyn”, is employed to determine whether the combined effects are synergistic, antagonistic or additive.
(§2) Two cell lines, the HCT116 human colon carcinoma cells and MDA-MB-435P, a hormone independent breast carcinoma cell line, are chosen based on their sensitivity to HDAI. Chemotherapeutic agents are paired with the cell lines based on their clinical relevance. The compounds tested in combination with N-hydroxy-3-[4-[[(2-hydroxyethyl)[2-(1H-indol-3-yl)ethyl]-amino]methyl]phenyl]-2E-2-propenamide include adriamycin which is clinically used in the treatment of breast cancer, 5-fluoruracil (5-FU), and camptothecin, used clinically for colon cancer. Due to the reported cross-talk between histone deacetylases and DNA methyl transferases, 5-azacytidine, a DNA methyltransferase inhibitor, is also tested.
Human breast carcinoma cells, MDA-MB-435P are cultured as previously described in the reference above. Cell proliferation is measured using an adaptation of published procedures essentially as described, in Zhang R D, Fidler I J, Price J E, “Relative malignant potential of human breast carcinoma cell lines established from pleural effusions and a brain metastasis”, Invasion-Metastasis 1991; 11 :204-15.
Experiments are done using five-point or six-point drug titrations in 96-well tissue culture plates, with the top row left empty. HCT116 and MDA-MB-435P cells are suspended in complete media at a density of 3.6×10^3 and 2.1×10^4 cell/ml, respectively, and 190 μl are added per well. Complete medium (200 μl) is added to the top row. 24 hours later, after the cells have attached to the bottom of the plate, 10 μl of MTS solution are added to one of the plates to determine the activity at the time of compound addition (T0). The plate is incubated at 37° C. for 4 hours and the OD is measured on a Molecular Devices Thermomax at 490 nm using the Softmax program. The T0 plate serves as a reference for initial activity at the beginning of the experiment. Compound addition begins 24 hours after seeding, the same time as the T0 determination. […] One cell line is tested with four compounds or combinations per plate. 10 microliters of each of the six dilutions are added in triplicate and complete medium is added to the bottom row. The compounds are added to the plates singly or in combination with N-hydroxy-3-[4-[[(2-hydroxyethyl)[2-(1H-indol-3-yl)ethyl]-amino]methyl]phenyl]-2E-2-propenamide. In pretreated combinations, the drugs are added simultaneously, 24 hr prior, or 24 hr after N-hydroxy-3-[4-[[(2-hydroxyethyl)[2-(1H-indol-3-yl)ethyl]-amino]methyl]phenyl]-2E-2-propenamide. As controls for pretreatment, new dilutions are added to untreated cells singly or in combination 48 hours after seeding.
The plates are incubated at 37° C. for 72 hours from seeding. The MTS solution is added (as for the T0 plate) and read four hours later. In order to analyze the data, the average value of media alone (background) is subtracted from each experimental well and the triplicate values are averaged for each compound dilution. The following formulas are used to calculate percent growth.
The “% Growth” is plotted against compound concentration and used to calculate IC50s employing the user-defined spline function in Microsoft Excel. This function uses linear regression between data points to predict the concentration of compounds at 50% inhibition. IC50s are used to determine the dose range for each compound and the resultant combinations.
(§3) Using the CalcuSyn program, the Combination Index (CI) is determined by the isobologram equation CI=(D)1/(Dx)1+(D)2/(Dx)2. […]

HCT116 cells [1] = assay: as above; assay type: cell-based, human
From the text: as §1
Two cell lines, the HCT116 human colon carcinoma cells and MDA-MB-435P, a hormone independent breast carcinoma cell line, are chosen based on their sensitivity to HDAI. Chemotherapeutic agents are paired with the cell lines based on their clinical relevance. […]
(§4) Experiments are done using five-point or six-point drug titrations in 96-well tissue culture plates, with the top row left empty. […] The plate is incubated at 37° C. for 4 hours and the OD is measured on a Molecular Devices Thermomax at 490 nm using the Softmax program. […]
(§5) The plates are incubated at 37° C. for 72 hours from seeding. The MTS solution is added (as for the T0 plate) and read four hours later. […]
as §3

tumor cell lines = assay: MTS monolayer proliferation assay, combination with 5-azacytidine (cell line not stated); assay type: cell-based; settings: in combination with 5-azacytidine
From the text: as §1, §2
as §4, with “empty. HCT116 and MDA-MB-435P cells are suspended in complete media at a density of 3.6×10^3 and 2.1×10^4 cell/ml, respectively, and 190 μl are added per well. Complete medium (200 μl) is added to the top row.” for “empty.”
as §5
Using the CalcuSyn program, the Combination Index (CI) is determined by the isobologram equation CI=(D)1/(Dx)1+(D)2/(Dx)2. […] For each compound the % growth values at each dose as determined in the MTS assay is used. […]

[2] = tested on: histone acetylation (intracellular HDA); assay: Histone acetylation in cells treated in culture; assay type: cell-based, human
p21 promoter = assay: Transcriptional activation of the p21 promoter; assay type: cell-based; settings: single agent; sub-micromolar concentrations
cell growth = assay: Inhibition of cell growth in vitro; assay type: cell-based; settings: single agent
HCT116 cells [3] = assay: Apoptosis in HCT116 cells; assay type: cell-based, human; settings: single agent, sub micromolar levels, 48 to 72 hours of exposure
[4] = tested on: normal dermal fibroblasts; assay: Effect on normal dermal fibroblasts; assay type: cell-based; settings: single agent; compared with HCT116 cells
[5] = tested on: HCT116 colon carcinoma xenograft; assay: HCT116 colon carcinoma xenograft model; assay type: in vivo, athymic mice; settings: single daily intravenous doses 10 to 100 mg/kg
[6] = tested on: A549 lung carcinoma xenograft; assay: A549 lung carcinoma xenograft model; assay type: in vivo; settings: single daily intravenous doses 10 to 100 mg/kg
[7] = tested on: MDA-M B-435P breast carcinoma xenograft; assay: MDA-MB-435P breast carcinoma xenograft model; assay type: in vivo; settings: MDA-MB-435P breast xenograft; single daily intravenous doses 10 to 100 mg/kg
[8] = tested on: acetylated histone H3 and H4; assay: Acetylated histone levels in HCT116 human tumor xenografts; settings: in vivo, HCT116 human tumor xenografts from athymic mice
From the text: The compound also increases acetylated histone H3 and H4 levels in vivo, in HCT116 human tumor xenografts from athymic mice. In this example, the effects of combining N-hydroxy-3-[4-[[(2-hydroxyethyl)[2-(1H-indol-3-yl)ethyl]-amino]methyl]phenyl]-2E-2-propenamide with standard therapeutics or with other experimental drugs on monolayer proliferation of tumor cell lines are investigated.

[9] = HDAI added 24 hr prior to adriamycin
[10] = adriamycin added 24 hr prior to HDAI

O=C(/C=C/c1ccc(CN(CCO)CCc2c[nH]c3ccccc23)cc1)NO [N-hydroxy-3-[4-[[(2-hydroxyethyl)[2-(1H-indol-3-yl)ethyl]-amino]methyl]phenyl]-2E-2-propenamide]
combination index (MDA-MB-435P cells; [9]): ~1
combined antiproliferative effect (isobologram / combination index) (MDA-MB-435P cells; [9]): additive effects
combination index (MDA-MB-435P cells; [10]): < 0.1
combined antiproliferative effect (isobologram / combination index) (MDA-MB-435P cells; [10]): synergistic effects; also recorded: strong synergy; also recorded: very strong synergy
combination index (MDA-MB-435P cells; simultaneous addition): ~1
combined antiproliferative effect (isobologram / combination index) (MDA-MB-435P cells; simultaneous addition): additive effects
combined antiproliferative effect (isobologram / combination index) (HCT116 cells [1]; in combination with 5-FU): mainly additive effects; also recorded: additive or weak antagonistic effects
combined antiproliferative effect (combination index) (HCT116 cells [1]; in combination with camptothecin): mainly additive effects; also recorded: additive or weak antagonism; also recorded: additive or weak antagonistic effects
combined antiproliferative effect (tumor cell lines; all drug addition schedules): mainly additive effects; also recorded: concentration-dependent effects
combined antiproliferative effect (tumor cell lines; high inhibitory concentrations (IC50)): additive effects
combined antiproliferative effect (tumor cell lines; low inhibitory concentrations (IC25)): antagonistic effects
levels of histone acetylation ([2]; HCT116 cells treated in culture continuously for 3 to 24 hr): Increased levels of histone acetylation
histone acetylation ([2]; single agent, sub-micromolar concentrations, cells not given): increases histone acetylation
p21 promoter activation (p21 promoter): transcriptionally activates the p21 promoter
concentration inhibiting cell growth (cell growth): sub-micromolar concentrations
apoptosis (HCT116 cells [3]): produces apoptosis
cellular response of normal dermal fibroblasts [4]: predominantly undergo cell-cycle arrest
reduction of viability of normal dermal fibroblasts [4]: much higher concentrations and longer times of exposure are required
tumor growth [5]: reproducibly inhibits tumor growth
tumor growth [6]: reproducibly inhibits tumor growth
tumor growth [7]: reproducibly inhibits tumor growth
acetylated histone H3 levels [8]: increases
acetylated histone H4 levels [8]: increases
